The NIST ThermoML archive (doi:10.1016/j.jct.2011.10.001)

Test: molar heat capacity at constant pressure
Conditions: 101.33 kPa, Crystal, Vacuum adiabatic calorimetry

CCCC(=O)OC [methyl butanoate]
Conditions | molar heat capacity at constant pressure [J/K/mol]
5 K | 0.356
7.61 K | 1.24
7.88 K | 1.381
8.13 K | 1.514
8.39 K | 1.657
8.65 K | 1.805
8.9 K | 2.108
9.16 K | 2.207
9.41 K | 2.466
9.66 K | 2.549
9.91 K | 2.719
10 K | 2.828
10.22 K | 2.894
10.6 K | 3.3
10.98 K | 3.648
11.35 K | 4.064
11.73 K | 4.38
12.13 K | 4.735
12.5 K | 5.111
12.86 K | 5.563
13.23 K | 5.907
13.6 K | 6.278
13.96 K | 6.646
14.33 K | 7.063
14.68 K | 7.551
15 K | 7.893
15.04 K | 7.92
15.4 K | 8.318
15.76 K | 8.825
16.11 K | 9.332
16.47 K | 9.652
16.82 K | 10.21
17.17 K | 10.66
17.53 K | 11.07
17.88 K | 11.41
18.23 K | 11.84
18.58 K | 12.53
18.93 K | 12.9
19.28 K | 13.53
19.63 K | 13.98
19.98 K | 14.42
20 K | 14.36
20.62 K | 15.2
21.39 K | 16.16
22.15 K | 17.23
22.91 K | 18.29
23.67 K | 19.35
24.44 K | 20.59
25 K | 21.25
25.2 K | 21.61
25.97 K | 22.55
26.73 K | 23.64
27.49 K | 24.49
28.25 K | 25.82
29.01 K | 26.93
29.77 K | 27.91
30 K | 28.14
30.53 K | 29.04
31.29 K | 29.6
32.82 K | 31.82
33.59 K | 32.79
34.35 K | 33.88
35 K | 34.59
35.11 K | 34.58
35.86 K | 35.63
36.61 K | 36.63
37.37 K | 37.49
38.12 K | 38.33
38.88 K | 38.88
39.63 K | 39.87
40 K | 40.28
40.39 K | 40.69
41.14 K | 41.43
41.9 K | 42.12
42.65 K | 43.21
43.4 K | 44
44.16 K | 44.51
44.91 K | 45.66
45 K | 45.57
45.66 K | 46.29
46.41 K | 47.13
47.17 K | 47.63
47.92 K | 48.66
48.66 K | 49.52
49.41 K | 50.2
50 K | 50.77
50.16 K | 50.98
50.91 K | 51.69
51.66 K | 52.27
52.4 K | 53.16
53.15 K | 54.06
53.89 K | 54.63
54.64 K | 55.7
55 K | 55.94
55.38 K | 56.48
56.12 K | 57.16
56.87 K | 57.9
59.09 K | 60.08
59.84 K | 60.45
60 K | 60.87
60.58 K | 61.42
61.32 K | 62.07
62.06 K | 62.68
62.8 K | 63.44
63.54 K | 64.04
64.28 K | 64.72
65 K | 65.14
65.03 K | 65.05
65.77 K | 65.7
66.5 K | 66.39
67.24 K | 66.79
67.98 K | 67.34
68.72 K | 67.73
69.46 K | 68.24
70 K | 68.48
70.2 K | 68.47
71.09 K | 68.75
72.14 K | 69.62
73.19 K | 70.47
74.24 K | 70.88
75 K | 71.36
75.29 K | 71.51
76.34 K | 72.3
77.39 K | 72.87
78.44 K | 73.35
78.68 K | 72.62
79.48 K | 74.12
79.71 K | 73.82
80 K | 74.1
80.53 K | 74.83
80.74 K | 74.41
81.58 K | 75.43
81.76 K | 74.8
82.62 K | 75.67
82.79 K | 75.48
83.67 K | 76.36
83.81 K | 75.48
84.83 K | 76.86
85 K | 76.9
85.85 K | 77.51
86.87 K | 77.78
87.89 K | 78.68
88.91 K | 79.57
89.93 K | 79.99
90 K | 79.81
90.96 K | 80.42
91.97 K | 80.85
92.99 K | 81.43
94.01 K | 82.02
95 K | 82.75
95.03 K | 82.39
96.04 K | 83.43
97.06 K | 84.19
98.07 K | 84.16
99.09 K | 84.89
100 K | 85.29
100.1 K | 85.45
101.62 K | 86.18
103.64 K | 87.3
105.66 K | 88.28
107.68 K | 89.36
109.7 K | 90.17
110 K | 90.46
111.72 K | 91.08
113.73 K | 92.15
115.74 K | 93.34
117.75 K | 94.24
119.76 K | 95.16
120 K | 95.31
121.76 K | 96.24
123.77 K | 97.13
125.78 K | 98.02
127.78 K | 98.84
129.79 K | 99.75
